Tested on: tissue
Assay: Local tissue toxicity of glutaraldehyde by concentration
Type: in vivo
Settings: below this level limited local toxicity

Structure (SMILES): O=CCCCC=O [glutaraldehyde]
- concentration that produces significant tissue necrosis: ≥ 0.75%
